The text below walks through data of patent US20260374739A1, “SMALL MOLECULAR WEIGHT CHEMICAL COMPOUND TO ANTAGONIZE EPH-EPHRIN TETRAMERIZATION AND INHIBIT BIDIRECTIONAL SIGNALING” (THE BOARD OF REGENTS OF THE UNIVERSITY OF TEXAS SYSTEM, priority 2022, published 2026).

In this experiment the test system is CFA-induced thermal pain in mice. Kind of experiment: CFA inflammatory pain, thermal. Type of experiment: in vivo, mouse. As to the method:
A total of five wildtype (WT) male mice were injected IP with A20 free base (3 mice at 10 mg/kg and 2 mice at 20 mg/kg in 6% DMSO/94% sunflower seed oil, data is pooled) and three WT males with vehicle (V) only as control. As indicated, injections of A20 or V started two days prior to the single injection of CFA into one of the two hind paws to initiate inflammatory pain, and injections continued for two additional days. For each day's examination of withdrawal latency, both left and right hind paws were subjected to 6-12 thermal pain measurements to obtain an average response time for each mouse. Mice were at 14 weeks age when experiment started.
Wildtype (WT) female mice were injected IP with either A20 free base (20 mg/kg in 6% DMSO/94% sunflower seed oil), with MCD kinase inhibitor (10 mg/kg in PBS), or vehicle only (6% DMSO/94% sunflower seed oil). Injections of A20, MCD, or V started two days prior to a single injection of CFA into one of the two hind paws to initiate inflammatory pain, and injections continued for two additional days. For each day's examination of withdrawal latency, both left and right hind paws were subjected to 6-12 thermal pain measurements to obtain an average response time, and for each mouse the average of the uninjured hind paw response time was divided by the average of the injured side response time to obtain a pain response ratio for each mouse which was then plotted and subjected to indicated statistical analysis. Data shown were those obtained at day +3 post-CFA. Mice were at 20 weeks age when experiment started.
FIG. 63 depicts tests of salt versions of compounds A20 and QPB4-Bn showing both are effective at reducing inflammatory pain when injected after the pain-generating insult and when using PBS as the vehicle. Wild-type (WT) male and female mice were injected IP with either A20.2×HCl salt (20 mg/kg in PBS), QPB4-Bn·2×HCl salt (20 mg/kg in PBS), or vehicle only (PBS). Here, the first injection of A20, QPB4-Bn, or V started 15 minutes after CFA was injected into one of the two hind paws to initiate inflammatory pain, and injections continued every 12 hours for three additional days. For each day's examination of withdrawal latency, both left and right hind paws were subjected to 6-12 thermal pain measurements to obtain an average response time, and for each mouse the average of the uninjured hind paw response time was divided by the average of the injured side response time to obtain a pain response ratio for each mouse which was then plotted and subjected to indicated statistical analysis. Data shown were those obtained at day +3 post-CFA. Mice were at 8 weeks age when experiment started.
FIG. 64 depicts tests of two more A20 analogs, salt forms of QPB4 and QPP (QPP127) show both are effective at reducing inflammatory pain when injected after the pain-generating insult and when using PBS as the vehicle. Wild-type (WT) female mice were injected IP with QPB4.2×HCl salt (20 mg/kg in PBS), QPP (QPP127)·2×HCl salt (20 mg/kg in PBS), or vehicle only (PBS). Here, the first injection of QPB4, QPP (QPP127), or vehicle started 15 minutes after CFA was injected into one of the two hind paws to initiate inflammatory pain, and injections continued every 12 hours for three additional days. For each day's examination of withdrawal latency, both left and right hind paws were subjected to 6-12 thermal pain measurements to obtain an average response time, and for each mouse the average of the uninjured hind paw response time was divided by the average of the injured side response time to obtain a pain response ratio for each mouse which was then plotted and subjected to indicated statistical analysis. Data shown were those obtained at day +3 post-CFA. Mice were at 12 weeks age when experiment started.
A20 was therefore tested in 14-week-old CD1 mice for enhanced thermal sensitivity induced by CFA. […]

Molecules are shown by their SMILES. “Also recorded” adds a separate entry of the source. Some results are limits rather than exact numbers.

As to `Oc1ccc(CN2CCN(c3ccc(Br)cc3)CC2)c2cccnc12` [Compound 26, 5-((4-(4-bromophenyl)piperazin-1-yl)methyl)quinolin-8-ol], the “thermal pain” value (dosed after CFA) is “ability to blunt the enhanced sensitivity produced by the inflammatory pain insult”.

Take `Oc1c(Br)cc(CN2CCOCC2)c2cccnc12` [Compound 5, 7-bromo-5-(morpholinomethyl)quinolin-8-ol]: for the setting “IP or PO 20 mg/kg, vehicle 4 or above”, the thermal pain ratio is listed as under 2. Besides, the “thermal pain” value runs as follows: (IP, dosing started two days before CFA, listed as A20) “remarkably blunted; also recorded: appears to be a more effective agent”; (dosed after CFA, listed as A20) “ability to blunt the enhanced sensitivity produced by the inflammatory pain insult; also recorded: reduced sensitivity to the infrared heat source compared to the vehicle treated mice”. `Oc1ccc(CN2CCN(Cc3ccc(Br)cc3)CC2)c2cccnc12` [Compound 42, 5-((4-(4-bromobenzyl)piperazin-1-yl)methyl)quinolin-8-ol]: the “thermal pain” value (dosed after CFA) is on record as “ability to blunt the enhanced sensitivity produced by the inflammatory pain insult”. Consider `Oc1ccc(CN2CCN(c3ccc(Br)cn3)CC2)c2cccnc12` [Compound 33, 5-((4-(5-bromopyridin-2-yl)piperazin-1-yl)methyl)quinolin-8-ol], for which the “thermal pain” value (dosed after CFA) is listed as “ability to blunt the enhanced sensitivity produced by the inflammatory pain insult”.
